Experimental data from the supplement of paper PMC11208160.

Experiment: recombinant barcode read abundance after kanamycin selection (control-corrected) (log10(CPM+1)); higher = more efficient recombination; sequences stand for … in AGTGCAGAGAAAATCGGCCAGTTTTCTCTGCCTGCAGTCCGCATGCCGT…AGATTTATGCAGCGGACTGCCTTTCTCCCAAAGTGATAAACCGGACAGTATCATGGACCGGTTTTCCCGGTAATCCGTATTTGCAAGGTTGGTTTCACT; site = the 11-nt target
Method in brief: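 Oligos holding a promoter, target, barcode and the J23119-driven first 104 bases of the bridge RNA were Gibson-cloned into a vector that supplied the other 73 bp plus a T7-inducible recombinase. This library was co-electroporated with a donor plasmid into E. coli. Two replicates went on chloramphenicol/ampicillin LB agar (control) and two on chloramphenicol/ampicillin/kanamycin with 0.1 mM IPTG. Recombination efficiency is read from averaged, control-corrected barcode counts per million at recombinant junctions, reported as log10(CPM+1).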
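Further: IS621 recombinase and bridge RNA in Escherichia coli cells.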

TGGTTCGCTTGGGTTCTAACCTGTTGCCT (site TGGTCCGCTAG)
recombinant barcode read abundance (log10): 0.0365

TGGTTCGCTTGGGTTCTAACCTGTTGCCT (site TGGTGCGCTAG)
recombinant barcode read abundance (log10): 0.0185

TGGTTCGCTTGGGTTCTAACCTGTTGCCT (site TGGTTCGCTAG)
recombinant barcode read abundance (log10): 1.43

TGTAATACTTGGGTTCTAACCTGTTGCCT (site TGTAATACTAG)
recombinant barcode read abundance (log10): 0.0354

TGTAATACTTGGGTTCTAACCTGTTGCCT (site TGTAATCCTAG)
recombinant barcode read abundance (log10): 0.0997

TGTAATACTTGGGTTCTAACCTGTTGCCT (site TGTAATGCTAG)
recombinant barcode read abundance (log10): 0.147

TGTAATACTTGGGTTCTAACCTGTTGCCT (site TGTAATTCTAG)
recombinant barcode read abundance (log10): 0.121

TGTACCTCTTGGGTTCTAACCTGTTGCCT (site TGTACCTCTAG)
recombinant barcode read abundance (log10): 0.522

TGTACCTCTTGGGTTCTAACCTGTTGCCT (site TGTCCCTCTAG)
recombinant barcode read abundance (log10): 0.00782

TGTACCTCTTGGGTTCTAACCTGTTGCCT (site TGTGCCTCTAG)
recombinant barcode read abundance (log10): 0.0235

TGTACCTCTTGGGTTCTAACCTGTTGCCT (site TGTTCCTCTAG)
recombinant barcode read abundance (log10): 0.0524

TGTACGCCTTGGGTTCTAACCTGTTGCCT (site GAGGTAACTGT)
recombinant barcode read abundance (log10): 0.0511

TGTACGCCTTGGGTTCTAACCTGTTGCCT (site TGTACGCCTAG)
recombinant barcode read abundance (log10): 0.0173

TGTAGGACTTGGGTTCTAACCTGTTGCCT (site AGTAGGACTAG)
recombinant barcode read abundance (log10): 0.0549

TGTAGGACTTGGGTTCTAACCTGTTGCCT (site CGTAGGACTAG)
recombinant barcode read abundance (log10): 0.142

TGTAGGACTTGGGTTCTAACCTGTTGCCT (site GGTAGGACTAG)
recombinant barcode read abundance (log10): 0.0264

TGTAGGACTTGGGTTCTAACCTGTTGCCT (site TGTAGGACTAG)
recombinant barcode read abundance (log10): 0.553

TGTAGTCCTTGGGTTCTAACCTGTTGCGT (site TGTAGTCCTAA)
recombinant barcode read abundance (log10): 0.062

TGTAGTCCTTGGGTTCTAACCTGTTGCGT (site TGTAGTCCTAC)
recombinant barcode read abundance (log10): 1.19

TGTAGTCCTTGGGTTCTAACCTGTTGCGT (site TGTAGTCCTAG)
recombinant barcode read abundance (log10): 0.293

TGTAGTCCTTGGGTTCTAACCTGTTGCGT (site TGTAGTCCTAT)
recombinant barcode read abundance (log10): 0.0925

TGTCCCGCTTGGGTTCTAACCTGTTGCCT (site TGTATCGCTAG)
recombinant barcode read abundance (log10): 0.0575

TGTCCCGCTTGGGTTCTAACCTGTTGCCT (site TGTCCCGCTAG)
recombinant barcode read abundance (log10): 0.708

TGTCCCTCTTGGGTTCTAACCTGTTGCCT (site TGTACCTCTAG)
recombinant barcode read abundance (log10): 0.014

TGTCCCTCTTGGGTTCTAACCTGTTGCCT (site TGTCCCTCTAG)
recombinant barcode read abundance (log10): 0.769

TGTCCCTCTTGGGTTCTAACCTGTTGCCT (site TGTGCCTCTAG)
recombinant barcode read abundance (log10): 0.111

TGTCCCTCTTGGGTTCTAACCTGTTGCCT (site TGTTCCTCTAG)
recombinant barcode read abundance (log10): 0.0962

TGTCGACCTTGGGTTCTAACCTGTTGCCT (site AGTCGACCTAG)
recombinant barcode read abundance (log10): 0.596

TGTCGACCTTGGGTTCTAACCTGTTGCCT (site CGTCGACCTAG)
recombinant barcode read abundance (log10): 0.113

TGTCGACCTTGGGTTCTAACCTGTTGCCT (site GGTCGACCTAG)
recombinant barcode read abundance (log10): 0.0191

TGTCGACCTTGGGTTCTAACCTGTTGCCT (site TGTCGACCTAG)
recombinant barcode read abundance (log10): 0.709

TGTCGGACTTGGGTTCTAACCTGTTGCAG (site TGTCGGACTAT)
recombinant barcode read abundance (log10): 0.197

TGTCGGACTTGGGTTCTAACCTGTTGCAG (site TGTCGGACTCT)
recombinant barcode read abundance (log10): 1.01

TGTCGGACTTGGGTTCTAACCTGTTGCAG (site TGTCGGACTGT)
recombinant barcode read abundance (log10): 0.127

TGTCGGACTTGGGTTCTAACCTGTTGCAG (site TGTCGGACTTT)
recombinant barcode read abundance (log10): 0.041

TGTGCCTCTTGGGTTCTAACCTGTTGCCT (site TGTACCTCTAG)
recombinant barcode read abundance (log10): 0.368

TGTGCCTCTTGGGTTCTAACCTGTTGCCT (site TGTCCCTCTAG)
recombinant barcode read abundance (log10): 0.02

TGTGCCTCTTGGGTTCTAACCTGTTGCCT (site TGTGCCTCTAG)
recombinant barcode read abundance (log10): 0.564

TGTGCCTCTTGGGTTCTAACCTGTTGCCT (site TGTTCCTCTAG)
recombinant barcode read abundance (log10): 0.173

TGTTACCCTTGGGTTCTAACCTGTTGCCT (site TGGTACCCTAG)
recombinant barcode read abundance (log10): 0.0146

TGTTACCCTTGGGTTCTAACCTGTTGCCT (site TGTTACCCTAG)
recombinant barcode read abundance (log10): 0.434

TGTTAGACTTGGGTTCTAACCTGTTGCCT (site TGTTAGACTAG)
recombinant barcode read abundance (log10): 0.164

TGTTAGACTTGGGTTCTAACCTGTTGCCT (site TGTTAGTCTCG)
recombinant barcode read abundance (log10): 0.113

TGTTCATCTTGGGTTCTAACCTGTTGCCT (site TGTTCATCTAG)
recombinant barcode read abundance (log10): 0.00521

TGTTCATCTTGGGTTCTAACCTGTTGCCT (site TGTTCTTCTAG)
recombinant barcode read abundance (log10): 0.0677

TGTTCTTCTTGGGTTCTAACCTGTTGCCT (site TGTTCATCTAG)
recombinant barcode read abundance (log10): 0.0245

TGTTCTTCTTGGGTTCTAACCTGTTGCCT (site TGTTCTTCTAG)
recombinant barcode read abundance (log10): 0.12

TGTTGGCCTTGGGTTCTAACCTGTTGCCT (site TGTTGCACTAG)
recombinant barcode read abundance (log10): 0.0375

TGTTGGCCTTGGGTTCTAACCTGTTGCCT (site TGTTGGCCTAG)
recombinant barcode read abundance (log10): 0.143

TTAACTACTTGGGTTCTAACCTGTTGCTA (site TTAACTACTAA)
recombinant barcode read abundance (log10): 0

TTAACTACTTGGGTTCTAACCTGTTGCTA (site TTAACTACTCA)
recombinant barcode read abundance (log10): 0.0937

TTAACTACTTGGGTTCTAACCTGTTGCTA (site TTAACTACTGA)
recombinant barcode read abundance (log10): 0.0479

TTAACTACTTGGGTTCTAACCTGTTGCTA (site TTAACTACTTA)
recombinant barcode read abundance (log10): 0.152

TTAACTACTTGGGTTCTAACCTGTTGCTG (site TTAACTACTAA)
recombinant barcode read abundance (log10): 0.0189

TTAACTACTTGGGTTCTAACCTGTTGCTG (site TTAACTACTCA)
recombinant barcode read abundance (log10): 0.425

TTAACTACTTGGGTTCTAACCTGTTGCTG (site TTAACTACTGA)
recombinant barcode read abundance (log10): 0.0228

TTAACTACTTGGGTTCTAACCTGTTGCTG (site TTAACTACTTA)
recombinant barcode read abundance (log10): 0.0609

TTACGCTCTTGGGTTCTAACCTGTTGCTA (site GGTTATCCTCC)
recombinant barcode read abundance (log10): 0.191

TTACGCTCTTGGGTTCTAACCTGTTGCTA (site TTACGCTCTTA)
recombinant barcode read abundance (log10): 0.621

TTACGGGCTTGGGTTCTAACCTGTTGCGG (site TTACGAGCTCC)
recombinant barcode read abundance (log10): 1.71

TTACGGGCTTGGGTTCTAACCTGTTGCGG (site TTACGCGCTCC)
recombinant barcode read abundance (log10): 0.183

TTACGGGCTTGGGTTCTAACCTGTTGCGG (site TTACGGGCTCC)
recombinant barcode read abundance (log10): 2.58

TTACGGGCTTGGGTTCTAACCTGTTGCGG (site TTACGTGCTCC)
recombinant barcode read abundance (log10): 0.189

TTACTAGCTTGGGTTCTAACCTGTTGCGT (site AGACTAGCTAC)
recombinant barcode read abundance (log10): 0.0536

TTACTAGCTTGGGTTCTAACCTGTTGCGT (site TTACTAGCTAC)
recombinant barcode read abundance (log10): 1.98

TTACTCTCTTGGGTTCTAACCTGTTGCCT (site TAACTCTCTAG)
recombinant barcode read abundance (log10): 0.127

TTACTCTCTTGGGTTCTAACCTGTTGCCT (site TCACTCTCTAG)
recombinant barcode read abundance (log10): 0.141

TTACTCTCTTGGGTTCTAACCTGTTGCCT (site TGACTCTCTAG)
recombinant barcode read abundance (log10): 0.137

TTACTCTCTTGGGTTCTAACCTGTTGCCT (site TTACTCTCTAG)
recombinant barcode read abundance (log10): 2.13

TTAGGGACTTGGGTTCTAACCTGTTGCCT (site TTAGGGACTAG)
recombinant barcode read abundance (log10): 2.18

TTAGGGACTTGGGTTCTAACCTGTTGCCT (site TTAGGGCCTAG)
recombinant barcode read abundance (log10): 0.0947

TTAGGGACTTGGGTTCTAACCTGTTGCCT (site TTAGGGGCTAG)
recombinant barcode read abundance (log10): 0.517

TTAGGGACTTGGGTTCTAACCTGTTGCCT (site TTAGGGTCTAG)
recombinant barcode read abundance (log10): 0.108

TTAGGGGCTTGGGTTCTAACCTGTTGCCT (site TTAGGGACTAG)
recombinant barcode read abundance (log10): 0.911

TTAGGGGCTTGGGTTCTAACCTGTTGCCT (site TTAGGGCCTAG)
recombinant barcode read abundance (log10): 0.08

TTAGGGGCTTGGGTTCTAACCTGTTGCCT (site TTAGGGGCTAG)
recombinant barcode read abundance (log10): 1.51

TTAGGGGCTTGGGTTCTAACCTGTTGCCT (site TTAGGGTCTAG)
recombinant barcode read abundance (log10): 0.0155
